Measurements: PubChem BioAssay (NCI)
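Here, GI50 denotes the concentration required for 50% inhibition of growth. TGI marks complete inhibition of growth.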

Key:
Experiment in all cases: DTP human tumour cell line panel, 384-well format
[1] = tested on: 786-0 renal
[2] = tested on: A498 renal
[3] = tested on: A549 NSCLC
[4] = tested on: CCRF-CEM leukemia
[5] = tested on: COLO 205 colon
[6] = tested on: DU-145 prostate
[7] = tested on: EKVX NSCLC
[8] = tested on: HCC-2998 colon
[9] = tested on: HCT-116 colon
[10] = tested on: HL-60(TB) leukemia
[11] = tested on: HOP-62 NSCLC
[12] = tested on: HOP-92 NSCLC
[13] = tested on: HS 578T breast
[14] = tested on: HT29 colon
[15] = tested on: IGROV1 ovarian
[16] = tested on: K-562 leukemia
[17] = tested on: LOX IMVI melanoma
[18] = tested on: M14 melanoma
[19] = tested on: MALME-3M melanoma
[20] = tested on: MDA-MB-435 melanoma
[21] = tested on: MDA-MB-468 breast
[22] = tested on: NCI-H226 lung
[23] = tested on: NCI-H460 NSCLC
[24] = tested on: NCI-H522 lung
[25] = tested on: NCI/ADR-RES ovarian
[26] = tested on: OVCAR-3 ovarian
[27] = tested on: OVCAR-4 ovarian
[28] = tested on: OVCAR-5 ovarian
[29] = tested on: OVCAR-8 ovarian
[30] = tested on: PC-3 prostate
[31] = tested on: RPMI-8226 leukemia
[32] = tested on: RXF 393 renal
[33] = tested on: SF-268 CNS
[34] = tested on: SF-295 CNS
[35] = tested on: SF-539 CNS
[36] = tested on: SK-MEL-2 melanoma
[37] = tested on: SK-MEL-28 melanoma
[38] = tested on: SK-MEL-5 melanoma
[39] = tested on: SK-OV-3 ovarian
[40] = tested on: SN12C renal
[41] = tested on: SR leukemia
[42] = tested on: SW-620 colon
[43] = tested on: T-47D breast
[44] = tested on: TK-10 renal
[45] = tested on: U251 glioblastoma
[46] = tested on: UACC-257 melanoma
[47] = tested on: UACC-62 melanoma

Work on `CC[C@H](Nc1ncnc2nc[nH]c12)c1nc2cccc(F)c2c(=O)n1-c1ccccc1` yielded a GI50 [1] of 10.6 µM, a TGI [1] of over 100 µM and a GI50 [2] of 4.38 µM. For the same molecule, the TGI [2] was 23 µM, the GI50 [3] was 32 µM and the TGI [3] was over 100 µM. It also gave a GI50 [4] of 5.93 µM, a TGI [4] of 25.8 µM and a GI50 [5] of over 67.3 µM. For the same molecule, the TGI [5] was over 100 µM, the GI50 [6] was 45 µM and the TGI [6] was over 100 µM. It also gave a GI50 [7] of 22.4 µM, a TGI [7] of over 84.8 µM and a GI50 [8] of 36.7 µM. For the same molecule, the TGI [8] was over 93.5 µM, the GI50 [9] was 39.9 µM and the TGI [9] was over 100 µM. For the same molecule, the GI50 [10] was 4.61 µM, the TGI [10] was 17.9 µM and the GI50 [11] was over 59.5 µM. The TGI [11] was over 100 µM, the GI50 [12] was 12.2 µM and the TGI [12] was 98.5 µM. For the same molecule, the GI50 [13] was 12.5 µM, the TGI [13] was 50.3 µM and the GI50 [14] was 58.2 µM. The TGI [14] was over 100 µM, the GI50 [15] was 4.31 µM and the TGI [15] was 14.9 µM. The GI50 [16] was 24 µM, the TGI [16] was 82.9 µM and the GI50 [17] was 43.2 µM. It also gave a TGI [17] of over 100 µM, a GI50 [18] of over 69 µM and a TGI [18] of over 100 µM. It also gave a GI50 [19] of 20.8 µM, a TGI [19] of over 89.1 µM and a GI50 [20] of 25.6 µM. It also gave a TGI [20] of 57.1 µM, a GI50 [21] of 4.58 µM and a TGI [21] of 15.9 µM. For the same molecule, the GI50 [22] was 37 µM, the TGI [22] was over 100 µM and the GI50 [23] was 38 µM. The TGI [23] was over 100 µM, the GI50 [24] was 26.1 µM and the TGI [24] was over 100 µM. The GI50 [25] was 54.7 µM, the TGI [25] was over 100 µM and the GI50 [26] was 8.68 µM. It also gave a TGI [26] of over 73.4 µM, a GI50 [27] of 64.6 µM and a TGI [27] of over 100 µM. The GI50 [28] was over 57.4 µM, the TGI [28] was over 100 µM and the GI50 [29] was 50.3 µM. It also gave a TGI [29] of over 100 µM, a GI50 [30] of 6.18 µM and a TGI [30] of over 100 µM. For the same molecule, the GI50 [31] was 16.7 µM, the TGI [31] was 36.5 µM and the GI50 [32] was 1.4 µM. For the same molecule, the TGI [32] was 9.61 µM, the GI50 [33] was 25.6 µM and the TGI [33] was over 100 µM. It also gave a GI50 [34] of 23.1 µM, a TGI [34] of over 76.3 µM and a GI50 [35] of 33.2 µM. It also gave a TGI [35] of over 100 µM, a GI50 [36] of 24 µM and a TGI [36] of 70.8 µM. The GI50 [37] was 27.5 µM, the TGI [37] was over 100 µM and the GI50 [38] was 7.4 µM. For the same molecule, the TGI [38] was over 45.7 µM, the GI50 [39] was 30.6 µM and the TGI [39] was over 83.3 µM. For the same molecule, the GI50 [40] was 16.6 µM, the TGI [40] was over 100 µM and the GI50 [41] was 16.2 µM. The TGI [41] was 32.6 µM, the GI50 [42] was over 75.8 µM and the TGI [42] was over 100 µM. It also gave a GI50 [43] of 5.22 µM, a TGI [43] of 56.4 µM and a GI50 [44] of over 38.3 µM. It also gave a TGI [44] of over 94.5 µM, a GI50 [45] of over 71.4 µM and a TGI [45] of over 100 µM. The GI50 [46] was over 74.9 µM, the TGI [46] was over 100 µM and the GI50 [47] was 19.4 µM. The TGI [47] was over 100 µM.
